Test results as given in patent publication US20240400555A1 (Initial Therapeutics, Inc., priority 2023, published 2024).
Where two headings read alike, the source gives them in different places.

Test system: MV-4-11 cells
Test: Cell Viability Assay in MV-4-11 Cells
Format: cell-based
Conditions: Homo sapiens, MV4-11, 72 h
Summary of the method: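 MV-4-11 cells at 7,000/well in IMDM with 10% FBS, exposed to compound for 72 h. Viability by CellTiter-Glo luminescence, normalized to DMSO as 100%, fitted with a four-parameter curve.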

[1] = MV-4-11 cells, 72 h, Cell-Titer Glo, read-out: IC50

| Structure (SMILES) | IC50 [1] [nM] | IC50 [nM] |
| --- | --- | --- |
| Cn1cc(-c2ccc(C(=O)N(c3nccc4cccc(Cl)c34)[C@@H]3CCCNC3)cc2)nn1 [Example 800, (R)—N-(8-chloroisoquinolin-1-yl)-4-(1-methyl-1H-1,2,3-triazol-4-yl)-N-(piperidin-3-yl)benzamide] | 170 |  |
| Cc1nnc(-c2ccc(C(=O)N(c3nccc4cc(Cl)cc(C)c34)[C@@H]3CCCNC3)nc2)s1 [Example 801, (R)—N-(6-chloro-8-methylisoquinolin-1-yl)-5-(5-methyl-1,3,4-thiadiazol-2-yl)-N-(piperidin-3-yl)picolinamide] | 140 |  |
| Cc1cc(Cl)cc2ccnc(N(C(=O)c3ccc(-c4cn(C)nn4)cc3)[C@@H]3CCCNC3)c12 [Example 802, (R)—N-(6-chloro-8-methylisoquinolin-1-yl)-4-(1-methyl-1H-1,2,3-triazol-4-yl)-N-(piperidin-3-yl)benzamide] | 38 |  |
| Cn1cc(-c2ccc(C(=O)N(c3nccc4cc(F)ccc34)[C@@H]3CCCNC3)nc2)nn1 [Example 803, (R)—N-(6-fluoroisoquinolin-1-yl)-5-(1-methyl-1H-1,2,3-triazol-4-yl)-N-(piperidin-3-yl)picolinamide] | 860 |  |
| Cc1nnc(-c2ccc(C(=O)N(c3nccc4cc(F)ccc34)[C@@H]3CCCNC3)cc2)s1 [Example 804, (R)—N-(6-fluoroisoquinolin-1-yl)-4-(5-methyl-1,3,4-thiadiazol-2-yl)-N-(piperidin-3-yl)benzamide] | 980 |  |
| Cn1cc(-c2ccc(C(=O)N(c3nccc4cc(F)ccc34)[C@@H]3CCCNC3)cc2)nn1 [Example 805, (R)—N-(6-fluoroisoquinolin-1-yl)-4-(1-methyl-1H-1,2,3-triazol-4-yl)-N-(piperidin-3-yl)benzamide] | 820 |  |
| O=C(c1ccc(-c2cccnn2)cn1)N(c1nccc2cc(Cl)ccc12)[C@@H]1CCCNC1 [Example 806, N-(6-chloro-1-isoquinolyl)-N-[(3R)-3-piperidyl]-5-pyridazin-3-yl-pyridine-2-carboxamide] | 680 |  |
| Cn1cc(-c2ccc(C(=O)N(c3nccc4cc(Cl)ccc34)[C@@H]3CCCNC3)cc2)nn1 [Example 808, (R)—N-(6-chloroisoquinolin-1-yl)-4-(1-methyl-1H-1,2,3-triazol-4-yl)-N-(piperidin-3-yl)benzamide] | 420 |  |
| Cc1cccc2ccnc(N(C(=O)c3ccc(-c4cn(C)nn4)cn3)[C@@H]3CCCNC3)c12 [Example 809, (R)-5-(1-methyl-1H-1,2,3-triazol-4-yl)-N-(8-methylisoquinolin-1-yl)-N-(piperidin-3-yl)picolinamide] | 200 |  |
| Cc1nnc(-c2ccc(C(=O)N(c3nccc4scc(C)c34)[C@@H]3CCCNC3)nc2)s1 [Example 810, (R)-5-(5-methyl-1,3,4-thiadiazol-2-yl)-N-(3-methylthieno[3,2-c]pyridin-4-yl)-N-(piperidin-3-yl)picolinamide] | 170 |  |
| Cc1csc2ccnc(N(C(=O)c3ccc(-c4cn(C)nn4)cn3)[C@@H]3CCCNC3)c12 [Example 811, (R)-5-(1-methyl-1H-1,2,3-triazol-4-yl)-N-(3-methylthieno[3,2-c]pyridin-4-yl)-N-(piperidin-3-yl)picolinamide] | 120 |  |
| Cc1cc(Cl)cc2ccnc(N(C(=O)c3ccc(-c4cn(C)nn4)cn3)[C@@H]3CCCNC3)c12 [Example 812, (R)—N-(6-chloro-8-methylisoquinolin-1-yl)-5-(1-methyl-1H-1,2,3-triazol-4-yl)-N-(piperidin-3-yl)picolinamide] | 51 |  |
| Cn1cc(-c2ccc(C(=O)N(c3nccc4sc(C(=O)Nc5ccncc5)cc34)[C@@H]3CCCNC3)c(F)c2)nn1 [Example 813, (R)-4-(2-fluoro-4-(1-methyl-1H-1,2,3-triazol-4-yl)-N-(piperidin-3-yl)benzamido)-N-(pyridin-4-yl)thieno[3,2-c]pyridine-2-carboxamide] |  | 550 |
| Cc1cc(Cl)cc2ccnc(N(C(=O)c3ccc(-c4cnn(C)c4C)cc3F)[C@@H]3CCCNC3)c12 [Example 814, (R)—N-(6-chloro-8-methylisoquinolin-1-yl)-4-(1,5-dimethyl-1H-pyrazol-4-yl)-2-fluoro-N-(piperidin-3-yl)benzamide] | 430 |  |
